Laboratory results: patent US9849116B2 (KNOPP BIOSCIENCES LLC, priority 2008, dated 2017)
Several values for one entry are separate records, joined by “and”; a condition that tells them apart may be missing. Equal entries are not always repeated. Where two headings read alike, the source gives them in different places.

Legend:
[1] = system: male beagle dogs
Procedure: (§4) Three groups of four non-naïve male beagle dogs were used in the study. […] Doses were administered orally by gavage and clinical observations were taken continuously following dosing: hourly for the first four hours, and then twice daily cage-side observations for the duration of the inter-dose or post-dose interval. Observations were made of clinical signs, mortality, injury and availability of food and water. Animals were fasted for 24 hr prior to dosing. Dogs in each group were exposed to only one drug, or the combination; each dose was administered only once, with a subsequent dose administered after a recovery period of 4 days.

[2] = in vivo; conditions: both, minipig
[3] = clinical; conditions: human, plasma
Procedure: (§5) The first panel was administered a singe dose of 50 mg, followed 48 hours later by 4½ days of multiple dosing (twice daily) at 50 mg Q12 hours. The second panel was administered a singe dose of 100 mg, followed 48 hours later by 4½ days of multiple dosing (twice daily) at 100 mg Q12 hours. Safety observations included vital signs, physical examination, clinical laboratory tests, ECGs, and adverse event reporting. Blood samples were collected pre-dose on Day 1 and serially for 48 hours post-dose to assess the single-dose pharmacokinetics.

[4] = system: rats; conditions: 6 months, 30, 100, 300 mg/kg
[5] = system: healthy volunteers
Procedure: as §5

[6] = system: minipigs; conditions: 6 months
[7] = system: minipigs; conditions: ongoing 9-month study past month 7
[8] = biological target: D1 dopamine receptor (Homo sapiens, UniProt P21728)
Procedure: (§1) These concentrations were tested in cell lines expressing select human cloned dopamine receptors (D2S, D3).

[9] = biological target: D5 dopamine receptor (Homo sapiens, UniProt P21918)
Procedure: as §1

[10] = in vivo; conditions: both, minipig; remark: listed apart in the source
[11] = in vivo; conditions: male, dog, po
Procedure: as §4

[12] = system: healthy volunteers; assay: clinical
Procedure: (§2) Safety observations included vital signs, physical examination, clinical laboratory tests, ECGs, and adverse event reporting. Blood and urine samples were collected pre-dose and for 72 hours post-dose to assess the pharmacokinetics.

[13] = clinical; conditions: human; for AUC(0-t): AUC(0-t) (mean ± SD); for Vd/F: Vz/F (mean ± SD); for CL renal: plasma and urine
Procedure: as §2

[14] = system: rats; assay: in vivo
Procedure: (§3) Following this study, 3- and 6-month repeat dose toxicology studies were completed at doses of 30, 100, and 300 mg/kg.

[15] = in vivo; conditions: both, rat, in vivo
Procedure: as §3

[16] = system: minipigs
[17] = Day 1, 100 mg oral dose, fasted
[18] = Day 7, 50 mg Q12H on Days 3 through 6 and a single dose on Day 7, fasted
[19] = Day 7, 100 mg Q12H on Days 3 through 6 and a single dose on Day 7, fasted
[20] = single 150 mg oral dose, fasted
[21] = single 300 mg oral dose, fasted
[22] = plasma, po, 50 mg, single 50 mg oral dose, fasted
[23] = plasma, po, 150 mg, single 150 mg oral dose, fasted
[24] = plasma, po, 150 mg, single 150 mg oral dose, fed
[25] = plasma, po, 300 mg, single 300 mg oral dose, fasted

D5 dopamine receptor, sequence (P21918 whole entry): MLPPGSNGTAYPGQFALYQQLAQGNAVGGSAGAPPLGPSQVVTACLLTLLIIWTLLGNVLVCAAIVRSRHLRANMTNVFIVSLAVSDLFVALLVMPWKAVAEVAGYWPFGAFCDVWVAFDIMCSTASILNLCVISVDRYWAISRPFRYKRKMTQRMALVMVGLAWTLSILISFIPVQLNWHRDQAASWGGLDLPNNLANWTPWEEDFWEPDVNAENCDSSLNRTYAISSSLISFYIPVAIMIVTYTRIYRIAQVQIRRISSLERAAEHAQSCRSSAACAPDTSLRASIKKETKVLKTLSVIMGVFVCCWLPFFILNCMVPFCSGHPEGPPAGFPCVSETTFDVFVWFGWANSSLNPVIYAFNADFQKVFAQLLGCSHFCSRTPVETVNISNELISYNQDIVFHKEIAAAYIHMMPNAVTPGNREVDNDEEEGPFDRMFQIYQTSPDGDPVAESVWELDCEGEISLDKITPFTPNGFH
D1 dopamine receptor, sequence (P21728 whole entry): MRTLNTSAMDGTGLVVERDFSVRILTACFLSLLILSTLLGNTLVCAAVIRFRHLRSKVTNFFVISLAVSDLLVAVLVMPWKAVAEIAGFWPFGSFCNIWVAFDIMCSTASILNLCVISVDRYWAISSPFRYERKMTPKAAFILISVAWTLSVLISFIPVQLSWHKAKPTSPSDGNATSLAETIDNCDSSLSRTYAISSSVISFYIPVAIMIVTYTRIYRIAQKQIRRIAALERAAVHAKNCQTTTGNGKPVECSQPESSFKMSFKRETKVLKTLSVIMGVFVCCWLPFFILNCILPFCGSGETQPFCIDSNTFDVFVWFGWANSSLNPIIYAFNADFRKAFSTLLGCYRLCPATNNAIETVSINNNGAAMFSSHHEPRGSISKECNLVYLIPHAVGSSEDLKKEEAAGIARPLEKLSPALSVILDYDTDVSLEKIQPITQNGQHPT

## CCCN[C@@H]1CCc2nc(N)sc2C1 [(R)-pramipexole, (6R)-4,5,6,7-tetrahydro-N6-propyl-2,6-benzothiazole-diamine]
[1]; based on dog data, 70 kg human subject
  human equivalence dose of the MTD: about 3,000 mg
[1]; dog, in vivo
  observable effects in dogs: no observable effects
[1]; male, beagle, dog, in vivo, 4 days
  functional separation between the (S)- and (R)-enantiomers: 10,000-20,000 fold
[2]
  NOAEL at 3 months: 50 mg/kg
[3]; oral, 50 mg
  Cmax: 0.191 ± 0.0209 µg/mL
  Tmax: 1.75 h
  Vd/F: 346 ± 30.1 L
[3]; oral, 50 mg, AUC(0-12) (mean ± SD), Day 7, 50 mg Q12H on Days 3 through 6 and a single dose on Day 7, fasted
  AUC(0-t): 1.45 µg·h/mL
[3]; oral, 50 mg, mean exposure AUC(0-12) at Day 7, 50 mg Q12H
  AUC(0-t): 1.45 µg·h/mL
[3]; oral, 100 mg
  Cmax: 0.306 ± 0.055 µg/mL
  Tmax: 2 h
[3]; oral, 100 mg, AUC(0-12) (mean ± SD), Day 7, 100 mg Q12H on Days 3 through 6 and a single dose on Day 7, fasted
  AUC(0-t): 2.46 µg·h/mL
[3]; oral, 100 mg, mean exposure AUC(0-12) at Day 7, 100 mg Q12H
  AUC(0-t): 2.46 µg·h/mL
[3]; po, 50 mg
  AUC(0-inf): 1.5 µg·h/mL
  Tmax: 1.83 h
  Vd/F: 306 ± 45.8 L
[3]; po, 50 mg, AUC(0−12) (mean ± SD), Day 1, 50 mg oral dose, fasted
  AUC(0-t): 1.03 µg·h/mL
[3]; po, 50 mg, AUC(0−t) (mean ± SD), Day 1, 50 mg oral dose, fasted
  AUC(0-t): 1.46 µg·h/mL
[3]; po, 100 mg
  AUC(0-inf): 2.57 µg·h/mL
  Cmax: 0.248 ± 0.0304 µg/mL
  Tmax: 1.92 h
  Vd/F: 373 ± 51 L
[3]; po, 100 mg, AUC(0−12) (mean ± SD), Day 1, 100 mg oral dose, fasted
  AUC(0-t): 1.78 µg·h/mL
[3]; po, 100 mg, AUC(0−t) (mean ± SD), Day 1, 100 mg oral dose, fasted
  AUC(0-t): 2.54 µg·h/mL
[4]
  mortality between the 13-week and 26-week sacrifices: no mortalities at any dose level
[5]; 50 mg Q12H
  increase of AUC(0-12) from Day 1 to Day 7: 40%
  increase of Cmax from Day 1 to Day 7: 37%
[5]; 50 mg Q12H (Day 1), Fasted
  CL/F (mean ± SD): 571 ± 107 mL/h
[5]; 50 mg Q12H (Day 7), Fasted
  CL/F (mean ± SD): 585 ± 81.6 mL/h
[5]; 100 mg Q12H
  increase of AUC(0-12) from Day 1 to Day 7: 38%
  increase of Cmax from Day 1 to Day 7: 24%
[5]; 100 mg Q12H (Day 1), Fasted
  CL/F (mean ± SD): 665 ± 107 mL/h
[5]; 100 mg Q12H (Day 7), Fasted
  CL/F (mean ± SD): 684 ± 76.1 mL/h
[5]; Day 1, 50 mg oral dose, fasted
  AUC(0−12) (mean ± SD): 1,035 ± 121 h · ng/mL
  AUC(0−t) (mean ± SD): 1,463 ± 280 h · ng/mL
  AUC(inf) (mean ± SD): 1,502 ± 280 h · ng/mL
  CL/F (mean ± SD): 34300 ± 6420 mL/h
  λz (mean ± SD): 0.1132 ± 0.0230 h⁻¹
[5]; [17]
  AUC(0−12) (mean ± SD): 1,776 ± 260 h · ng/mL
  AUC(0−t) (mean ± SD): 2,545 ± 497 h · ng/mL
  CL/F (mean ± SD): 39900 ± 6420 mL/h
  λz (mean ± SD): 0.1073 ± 0.0161 h⁻¹
[5]; [18]
  AUC(0-12) (mean ± SD): 1,449 ± 221 h · ng/mL
  CL/F (mean ± SD): 35100 ± 4900 mL/h
  λz (mean ± SD): 0.1025 ± 0.0186 h⁻¹
[5]; [19]
  AUC(0-12) (mean ± SD): 2,465 ± 299 h · ng/mL
  CL/F (mean ± SD): 41000 ± 4570 mL/h
  λz (mean ± SD): 0.0894 ± 0.0117 h⁻¹
[5]; humans, total daily dose 500 mg as 250 mg Q12H
  projected steady-state exposure (AUC): approximately 7,000 h*ng/mL
[5]; multiple oral doses of 50 and 100 mg twice daily
  safety and tolerability: safe and well-tolerated
[6]
  mortality and clinical observations between the 13-week and 26-week sacrifices: no mortalities attributed to test article or significant clinical observations
[7]
  deaths and clinical observations: no deaths attributed to test article or significant clinical observations
[8]
  interaction with D1 dopamine receptor: no significant interaction
[9]
  interaction with D5 dopamine receptor: no significant interaction
[10]
  NOAEL at 14 days: 75 mg/kg
[11]
  MTD at 4 days: 75 mg/kg
  NOAEL at 4 days: 25 mg/kg
[12]; 50 mg SD, Fasted
  CL/F (mean ± SD): 706 ± 182 mL/h
[12]; 150 mg SD, Fasted
  CL/F (mean ± SD): 692 ± 183 mL/h
[12]; 150 mg SD, second 150 mg line, Food printed Fasted
  CL/F (mean ± SD): 774 ± 165 mL/h
[12]; 300 mg SD, Fasted
  CL/F (mean ± SD): 659 ± 260 mL/h
[12]; across dose levels
  urinary excretion of unchanged drug, share of drug elimination: approximately 70%
[12]; single 50 mg oral dose, fasted
  CL/F (mean ± SD): 42400 ± 10900 mL/h
  Fe (mean ± SD): 70.7 ± 10.4 % Dose
  Ue (mean ± SD): 35.3 ± 5.19 mg and 35.3 ± 5.19 ^ mg
  λz (mean ± SD): 0.1064 ± 0.0171 h⁻¹
[12]; [20]
  CL/F (mean ± SD): 41500 ± 11000 mL/h
  Fe (mean ± SD): 40.3 ± 4.69 % Dose
  Ue (mean ± SD): 60.5 ± 7.04 mg and 60.5 ± 7.04 ^ mg
  λz (mean ± SD): 0.1001 ± 0.0087 h⁻¹
[12]; single 150 mg oral dose, fed
  CL/F (mean ± SD): 46400 ± 9900 mL/h
  λz (mean ± SD): 0.1152 ± 0.0256 h⁻¹
[12]; single 150 mg, fed versus fasted
  effect of a high fat/high calorie meal on absorption and elimination: essentially no effect
[12]; [21]
  CL/F (mean ± SD): 39500 ± 15600 mL/h
  Fe (mean ± SD): 65.8 ± 9.33 % Dose
  Ue (mean ± SD): 198 ± 28.0 mg and 198 ± 28.0 ^ mg
  λz (mean ± SD): 0.1151 ± 0.0309 h⁻¹
[12]; single oral 50, 150, 300 mg
  time of maximum concentration post-dose: approximately 2 hours
[12]; single oral doses of 50, 150, 300 mg
  safety and tolerability: safe and well-tolerated
[13]; blood, po, 50 mg, single 50 mg oral dose, fasted
  AUC(0-t): 0.989 µg·h/mL
[13]; blood, po, 50 mg, AUC(inf) (mean ± SD), single 50 mg oral dose, fasted
  AUC(0-inf): 1.25 µg·h/mL
[13]; blood, po, 150 mg, single 150 mg oral dose, fasted
  AUC(0-t): 3.39 µg·h/mL
[13]; blood, po, 150 mg, AUC(inf) (mean ± SD), single 150 mg oral dose, fasted
  AUC(0-inf): 3.81 µg·h/mL
[13]; blood, po, 300 mg, single 300 mg oral dose, fasted
  AUC(0-t): 8.34 µg·h/mL
[13]; in vivo, oral, 150 mg
  Cmax: 0.315 ± 0.062 µg/mL
  Tmax: 2.58 h
[13]; in vivo, oral, 150 mg, AUC (inf) (mean ± SD), CL001, 150 mg SD, second 150 mg line, Food printed Fasted
  AUC(0-inf): 3.4 µg·h/mL
[13]; in vivo, oral, 150 mg, CL001, 150 mg SD, second 150 mg line, Food printed Fasted
  AUC(0-t): 3.1 µg·h/mL
[13]; in vivo, oral, 150 mg, 150 mg SD, second 150 mg line, Food printed Fasted
  Vd/F: 406 ± 62.8 L
[13]; in vivo, po, 300 mg, AUC(inf) (mean ± SD), single 300 mg oral dose, fasted
  AUC(0-inf): 8.62 µg·h/mL
[13]; po, 50 mg
  CL renal: 628 ± 149 mL/min
[13]; po, 150 mg
  CL renal: 310 ± 74.3 mL/min
[13]; po, 300 mg
  CL renal: 441 ± 159 mL/min
[13]; [22]
  AUC(0-t): 0.989 ± 0.295 µg·h/mL
  Vd/F: 395 ± 61.9 L
[13]; plasma, po, 50 mg, AUC(inf) (mean ± SD), single 50 mg oral dose, fasted
  AUC(0-inf): 1.25 µg·h/mL
[13]; plasma, po, 50 mg, mean exposure (AUC0-∞), single oral 50 mg, fasted
  AUC(0-inf): 1.25 µg·h/mL
[13]; plasma, po, 150 mg
  Cmax: 0.36 µg/mL
[13]; [23]
  AUC(0-t): 3.39 µg·h/mL
  Vd/F: 411 ± 81 L
[13]; [24]
  AUC(0-t): 3.1 µg·h/mL
  Vd/F: 406 ± 62.8 L
[13]; plasma, po, 150 mg, AUC(inf) (mean ± SD), single 150 mg oral dose, fasted
  AUC(0-inf): 3.81 µg·h/mL
[13]; plasma, po, 150 mg, AUC(inf) (mean ± SD), single 150 mg oral dose, fed
  AUC(0-inf): 3.4 µg·h/mL
[13]; plasma, po, 150 mg, mean exposure (AUC0-∞), single oral 150 mg, fasted
  AUC(0-inf): 3.81 µg·h/mL
[13]; plasma, po, 300 mg
  Cmax: 0.781 µg/mL
  Tmax: 1.96 h
[13]; [25]
  AUC(0-t): 8.34 µg·h/mL
  Vd/F: 346 ± 98.5 L
[13]; plasma, po, 300 mg, AUC(inf) (mean ± SD), single 300 mg oral dose, fasted
  AUC(0-inf): 8.62 µg·h/mL
[13]; plasma, po, 300 mg, mean exposure (AUC0-∞), single oral 300 mg, fasted
  AUC(0-inf): 8.62 µg·h/mL
[14]; rat, in vivo, 300 mg/kg
  target organ toxicity by histopathology examination: some target organ toxicity
[14]; rats, 3 months, 30, 100, 300 mg/kg
  test article related deaths: no test article related deaths
[14]; rats, high dose 500 mg/kg, 14 days
  mortality: caused mortality
[15]
  NOAEL at 3 months: 100 mg/kg
  NOAEL at 14 days: 150 mg/kg
[16]; both, minipig, in vivo, 75 mg/kg, 14 days
  incidence of emesis (at least one episode): 5 of 8
[16]; minipigs, 2 weeks (14 days)
  NOAEL: greater than or equal to 75 mg/kg
